Values of other authors in US20100310474A1, “PROTEIN CAGES FOR THE DELIVERY OF MEDICAL IMAGING AND THERAPEUTIC AGENTS” (MONTANA STATE UNIVERSITY, priority 2002, published 2010).

What was measured:
[1] = tested on: experimental tumor lung colonization; conditions: free peptide
[2] = tested on: platlets and neutrophils; conditions: cells bearing 67 kDa LBP
[3] = tested on: tumor cells; conditions: free peptide
[4] = tested on: tumor angiogenesis; conditions: mice
[5] = tested on: tumor cells in culture

Row | Compound | experimental tumor lung colonization [1] | toxic effect on platelets and neutrophils [2] | invasion of basement membranes by tumor cells [3] | tumor angiogenesis [4] | cytotoxic effects on tumor cells [5]
1 | CDPGYIGSRC [peptide 11] | reduces | no toxic effect | effectively blocks | inhibits | –
2 | Cc1ccc(C(=O)Nc2ccc(S(=O)(=O)O)c3cc(S(=O)(=O)O)cc(S(=O)(=O)O)c23)cc1NC(=O)c1cccc(NC(=O)Nc2cccc(C(=O)Nc3cc(C(=O)Nc4ccc(S(=O)(=O)O)c5cc(S(=O)(=O)O)cc(S(=O)(=O)O)c45)ccc3C)c2)c1 [suramin] | – | – | – | – | cytotoxic effects
